# Measured values reported in patent publication US20260297092A1, “PYRAZOLOPYRIMIDINE DERIVATIVES AS INHIBITORS OF NLRP3” (Takeda Pharmaceutical Company Limited, priority 2023, published 2026).
# What was measured:
# [1] = system: NLRP3 inflammasome (IL-1β production in THP-1 cells); test: IL-1β TR-FRET Assay (percentage of inhibition at 300 nM, 6 μM or 10 μM); assay type: cell-based, human; settings: LPS priming, ATP activation; for inhibition at 0.3 µM / inhibition at 6 µM: Homo sapiens; for inhibition at 0.3 µM: THP-1, 300 nM, read-out: IL-1β inhibitory rate at 300 nM (%); for inhibition at 6 µM: THP-1, 6 μM, read-out: IL-1β inhibitory rate at 6 μM (%)
# Outline: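 Percent inhibition of IL-1β used DMSO wells as 0% and 3 μM MCC-950 wells as full inhibition, with supernatant read by HTRF. Beforehand, IFN-γ-differentiated (25 ng/mL, 24 h), LPS-primed (50 ng/mL, 24 h) THP-1 cells received compound 30 min before inflammasome activation by 20 mM ATP for 2 h.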
# [2] = system: TNF-α (NF-κB pathway, THP-1 cells); test: TNF-α Assay (IC50); assay type: cell-based, human; settings: 600 ng/mL LPS, 3 hours
# Protocol: TNF-α Assay (Reported as IC50)
# Monocytic THP-1 cells (ATCC: TIB-202) were maintained in accordance with the provider's instructions in RPMI media (Life Technologies, Cat #A10491-01); RPMI was supplemented with 10% heat inactivated fetal bovine serum (Hyclone Cat #SH30396.03). The cells were differentiated into macrophages by the addition of 25 ng/mL IFN-7 for 24 hours at 37° C./5% CO2. Media was exchanged with fresh media with no FBS. The cells were plated at 40,000 cells per well in 384-well flat-bottom cell culture plates (Costar 3764) containing compounds (added in 1:1000) in a 1:3.16 serial dilution series in DMSO and were incubated for 30 minutes at 37° C./5% CO2. The NF-κB pathway was activated with the addition of 600 ng/mL LPS and the cells were incubated for 3 hours at 37° C./5% CO2. At the end of the incubation period, supernatant ([…]) was removed, and TNF-alpha were monitored using an ELISA (Human TNF-α ELISA, R&D systems, Cat #DY210) according to the manufacturer's instructions. 100% inhibition is determined with positive control, TPCA-1.
# The IC50 values in the TNF-α assay were calculated from a plot of percentage of inhibition versus the inhibitor concentration by a logistics curve fit according to: Y=[Bottom+(Top−Bottom)]/(1+10^[(Log IC50−X)·Hill Slope], where Y was the […] at the inhibitor concentration, X, “Bottom” was the lowest inhibition value, i.e., 0%, “Top” was the maximum inhibition value, i.e., 100%, and the “Hill Slope” described the slope of the sigmoidal curve between the “Bottom” and “Top” values. The curve fitting was conducted with internally developed software.
IC50 ([2]; Homo sapiens) [µM],IC50 [2] [µM],Compound,inhibition at 0.3 µM [1] [%],IL-1β inhibitory rate at 6 μM (%) ([1]; 6 μM),inhibition at 6 µM [1] [%]
> 30,–,"CO[C@H]1CCCC[C@@H]1c1nc2nn(-c3c(C)cc(C)cc3O)cc2c(=O)[nH]1 (racemic) [Example 36, racemic mixture of 2-(2-hydroxy-4,6-dimethylphenyl)-6-[(1R,2S)-2-methoxycyclohexyl]-2,5-dihydro-4H-pyrazolo[3,4-d]pyrimidin-4-one and 2-(2-hydroxy-4,6-dimethylphenyl)-6-[(1S,2R)-2-methoxycyclohexyl]-2,5-dihydro-4H-pyrazolo [3,4-d]pyrimidin-4-one]",97,–,–
> 30,–,"CCOc1nc2nn(-c3c(F)cc(OC)cc3Br)cc2c(=O)[nH]1 [Example 157, 2-(2-bromo-6-fluoro-4-methoxyphenyl)-6-ethoxy-2,5-dihydro-4H-pyrazolo[3,4-d]pyrimidin-4-one]",102,–,–
> 30,–,"COc1nc2nn(-c3c(F)cc(C4(F)CC4)cc3Br)cc2c(=O)[nH]1 [Example 204, 2-[2-bromo-6-fluoro-4-(1-fluorocyclopropyl)phenyl]-6-methoxy-2,5-dihydro-4H-pyrazolo[3,4-d]pyrimidin-4-one]",98,–,–
> 30,–,"CCOc1nc2nn(-c3c(F)cc(OC)cc3CC(F)(F)F)cc2c(=O)[nH]1 [Example 162, 6-ethoxy-2-[2-fluoro-4-methoxy-6-(2,2,2-trifluoroethyl)phenyl]-2,5-dihydro-4H-pyrazolo[3,4-d]pyrimidin-4-one]",97,–,–
> 30,–,"CCn1ncc(-c2nc3nn(-c4c(C)cc(C5CC5)cc4C)cc3c(=O)[nH]2)n1 [Example 257, 2-(4-cyclopropyl-2,6-dimethylphenyl)-6-(2-ethyl-2H-1,2,3-triazol-4-yl)-2,5-dihydro-4H-pyrazolo[3,4-d]pyrimidin-4-one]",–,–,99
> 30,–,"CCOc1nc2nn(-c3c(C)cc(OC(F)F)cc3C)cc2c(=O)[nH]1 [Example 147, 2-[4-(difluoromethoxy)-2,6-dimethylphenyl]-6-ethoxy-2,5-dihydro-4H-pyrazolo[3,4-d]pyrimidin-4-one]",103,–,–
> 30,–,"COc1nc2nn(-c3c(C)cc(C4(F)CC4)cc3F)cc2c(=O)[nH]1 [Example 208, 2-[2-fluoro-4-(1-fluorocyclopropyl)-6-methylphenyl]-6-methoxy-2,5-dihydro-4H-pyrazolo[3,4-d]pyrimidin-4-one]",102,–,–
> 30,–,"Cc1cc(C)c(-n2cc3c(=O)[nH]c(CN4CCOCC4)nc3n2)c(O)c1 [Example 62, 2-(2-hydroxy-4,6-dimethylphenyl)-6-[(morpholin-4-yl)methyl]-2,5-dihydro-4H-pyrazolo[3,4-d]pyrimidin-4-one]",95,–,–
> 30,–,"CCOc1nc2nn(-c3c(C)cc(C)cc3Br)cc2c(=O)[nH]1 [Example 118, 2-(2-bromo-4,6-dimethylphenyl)-6-ethoxy-2,5-dihydro-4H-pyrazolo[3,4-d]pyrimidin-4-one]",101,–,–
> 30,–,"CCOc1nc2nn(-c3ccc(C(C)C)cc3O)c(C)c2c(=O)[nH]1 [Example 44, 6-ethoxy-2-[2-hydroxy-4-(propan-2-yl)phenyl]-3-methyl-2,5-dihydro-4H-pyrazolo[3,4-d]pyrimidin-4-one]",101,–,–
> 30,–,"Cc1cc(C)c(-n2cc3c(=O)[nH]c(-c4ccccc4F)nc3n2)c(O)c1 [Example 20, 6-(2-fluorophenyl)-2-(2-hydroxy-4,6-dimethylphenyl)-2,5-dihydro-4H-pyrazolo[3,4-d]pyrimidin-4-one]",100,–,–
> 30,–,"CCOc1nc2nn(-c3c(F)cc(C)cc3C(F)F)cc2c(=O)[nH]1 [Example 63, 2-[2-(difluoromethyl)-6-fluoro-4-methylphenyl]-6-ethoxy-2,5-dihydro-4H-pyrazolo[3,4-d]pyrimidin-4-one]",100,–,–
0.279,–,"Cc1cc(C)c(-n2cc3c(=O)[nH]c(CC(C)(C)C)nc3n2)c(O)c1 [Example 68, 6-(2,2-dimethylpropyl)-2-(2-hydroxy-4,6-dimethylphenyl)-2,5-dihydro-4H-pyrazolo[3,4-d]pyrimidin-4-one]",97,–,–
> 30,–,"Cc1cc(C)c(-n2cc3c(=O)[nH]c(OCC(F)(F)F)nc3n2)c(O)c1 [Example 55, 2-(2-hydroxy-4,6-dimethylphenyl)-6-(2,2,2-trifluoroethoxy)-2,5-dihydro-4H-pyrazolo[3,4-d]pyrimidin-4-one]",98,–,–
> 30,–,"Cc1ccc(-n2cc3c(=O)[nH]c(-c4ccncn4)nc3n2)c(C)c1 [Example 84, 2-(2,4-dimethylphenyl)-6-(pyrimidin-4-yl)-2,5-dihydro-4H-pyrazolo[3,4-d]pyrimidin-4-one]",97,–,–

# More lines, now with the values behind:
Compound,IC50 ([2]; Homo sapiens) [µM],IC50 [2] [µM],inhibition at 0.3 µM [1] [%],IL-1β inhibitory rate at 6 μM (%) ([1]; 6 μM),inhibition at 6 µM [1] [%]
"Cc1cc(C2CC2)cc(C)c1-n1cc2c(=O)[nH]c([C@H]3CC3(F)F)nc2n1 [Example 191, 2-(4-cyclopropyl-2,6-dimethylphenyl)-6-(2,2-difluorocyclopropyl)-2,5-dihydro-4H-pyrazolo[3,4-d]pyrimidin-4-one]",> 30,–,109,–,–
"Cc1cc(C2CC2)cc(C)c1-n1cc2c(=O)[nH]c([C@@]3(F)CCOC3)nc2n1 [Example 289, 2-(4-cyclopropyl-2,6-dimethylphenyl)-6-[(3R)-3-fluorooxolan-3-yl]-2,5-dihydro-4H-pyrazolo[3,4-d]pyrimidin-4-one or 2-(4-cyclopropyl-2,6-dimethylphenyl)-6-[(3S)-3-fluorooxolan-3-yl]-2,5-dihydro-4H-pyrazolo[3,4-d]pyrimidin-4-one]",–,> 30,–,101,–
"COC[C@H](C)Oc1nc2nn(-c3c(F)cc(C4CC4)cc3C(F)F)cc2c(=O)[nH]1 [Example 205, 2-[4-cyclopropyl-2-(difluoromethyl)-6-fluorophenyl]-6-{[(2S)-1-methoxypropan-2-yl]oxy}-2,5-dihydro-4H-pyrazolo[3,4-d]pyrimidin-4-one]",> 30,–,95,–,–
"COC[C@@H](C)Oc1nc2nn(-c3c(F)cc(C4CC4)cc3C(F)F)cc2c(=O)[nH]1 [Example 207, 2-[4-cyclopropyl-2-(difluoromethyl)-6-fluoro-phenyl]-6-{[(2R)-1-methoxypropan-2-yl]oxy}-2,5-dihydro-4H-pyrazolo[3,4-d]pyrimidin-4-one]",> 30,–,98,–,–
"CCOCc1nc2nn(-c3c(C)cc(C)cc3O)cc2c(=O)[nH]1 [Example 46, 6-(ethoxymethyl)-2-(2-hydroxy-4,6-dimethylphenyl)-2,5-dihydro-4H-pyrazolo[3,4-d]pyrimidin-4-one]",> 30,–,95,–,–
"Cc1cc(C)c(-n2cc3c(=O)[nH]c(CC4CCCO4)nc3n2)c(O)c1 (stereo not shown) [Example 33, 2-(2-hydroxy-4,6-dimethylphenyl)-6-[(oxolan-2-yl)methyl]-2,5-dihydro-4H-pyrazolo[3,4-d]pyrimidin-4-one]",> 30,–,97,–,–
"CCOc1nc2nn(-c3ccc(C4CC4)cc3O)c(C)c2c(=O)[nH]1 [Example 48, 2-(4-cyclopropyl-2-hydroxyphenyl)-6-ethoxy-3-methyl-2,5-dihydro-4H-pyrazolo[3,4-d]pyrimidin-4-one]",> 30,–,100,–,–
"COCc1nc2nn(-c3c(F)cc(C4CC4)cc3CC(F)F)cc2c(=O)[nH]1 [Example 322, 2-[4-cyclopropyl-2-(2,2-difluoroethyl)-6-fluorophenyl]-6-(methoxymethyl)-2,5-dihydro-4H-pyrazolo[3,4-d]pyrimidin-4-one]",> 30,–,–,–,104
"CCOc1nc2nn(-c3c(C)cc(OC)cc3F)cc2c(=O)[nH]1 [Example 121, 6-ethoxy-2-(2-fluoro-4-methoxy-6-methylphenyl)-2,5-dihydro-4H-pyrazolo[3,4-d]pyrimidin-4-one]",> 30,–,97,–,–
"CCOc1nc2nn(-c3c(C)ccc(C)c3O)cc2c(=O)[nH]1 [Example 16, 6-ethoxy-2-(2-hydroxy-3,6-dimethylphenyl)-2,5-dihydro-4H-pyrazolo[3,4-d]pyrimidin-4-one]",> 30,–,101,–,–
"Cc1cc(C2CC2)cc(C)c1-n1cc2c(=O)[nH]c([C@@]3(F)CCOC3)nc2n1 [Example 247, 2-(4-cyclopropyl-2,6-dimethylphenyl)-6-(3-fluorooxolan-3-yl)-2,5-dihydro-4H-pyrazolo[3,4-d]pyrimidin-4-one]",> 30,–,–,–,100
